Results: patent US20260256763A1, “Aromatic Amide Derivative, And Preparation Method Therefor And Use Thereof” (Zhejiang Hisun Pharmaceutical Co., Ltd., priority 2023, published 2026)

Assays:
[1] = molecular target: T1, recombinant human KIF18A (Homo sapiens, UniProt Q8NI77); experiment: Inhibition on KIF18A enzyme activity (ADP-Glo); assay type: biochemical; details: recombinant human KIF18A 100 nM, ATP 60 μM
T1 construct: purchased GenScript
Protocol: Inhibition degrees of the compounds of the present invention on recombinant human KIF18A enzyme activity in vitro were determined by the following method. An ADP-Glo™ Kinase Assay kit (article number V9102) from Promega Company was used in this method. Detailed experimental operation can be referred to the instruction of the kit.
The reaction was carried out in a 384-well microplate. The test compound and the recombinant human KIF18A protein (final concentration of 100 nM, entrusted to GenScript for expression) were added into the wells and incubated at room temperature for 20 minutes, and subsequently, ATP solution (component V915A from the ADP-Glo™ Kinase Assay kit, final concentration of 60 μM) was added to the reaction solution and the obtained system was incubated at room temperature for 20 minutes. Subsequently, 5 μL of ADP-Glo Reagent was added to the reaction system and the obtained system was incubated at room temperature for 50 minutes. Then, 10 μL of Kinase Detection Reagent was added to the reaction system, and the obtained system was incubated at room temperature for 30 minutes. After the incubation was ended, a chemiluminiscence intensity value of each well was determined by a microplate reader in a Luminescence mode.

[2] = test system: OVCAR-3 cells; experiment: Inhibition on OVCAR-3 cell proliferation (CellTiter-Glo); assay type: cell-based; details: Homo sapiens, OVCAR-3 cells (TP53 R248Q mutation), 72 hours
Protocol: (§1) Influences of the compounds of the present invention on OVCAR-3 cell proliferation were determined by the following method. OVCAR-3 cells (containing TP53 R248Q mutation) were purchased from the Cell Bank of Shanghai Institute of Biochemistry and Cell Biology, Chinese Academy of Sciences, and cultured in an RPMI 1640 culture medium containing 1000 fetal bovine serum, 100 U penicillin and 100 μg/mL streptomycin. A cell viability was determined by a CellTiter-Glo® Luminescent Cell Viability Assay kit (Promega, article number G7573).
(§2) An experimental method was operated according to steps in the instruction of the kit, which was briefly described as follows: a test compound was dissolved in DMSO first to prepare a 10 mM stock solution, then the stock solution was diluted with the above RPMI 1640 culture medium to prepare a test sample, and a final concentration of the compound was in a range of 1000 nM-0.015 nM. Cells in a logarithmic growth phase were inoculated into a 96-well cell culture plate at a density of 1000 cells per well, cultured in a 5% CO2 incubator at 37° C. overnight, and then the test compound was added to continuously culture for 72 hours. After the culture was ended, 50 μL of CellTiter-Glo detection solution was added to each well, the plates were shaken for 5 minutes, and then allowed to stand for 10 minutes, and subsequently, a luminous value of each well of sample was read by a microplate reader in a Luminescence mode. By comparing with a numerical value of a control group (0.3% DMSO), a percentage inhibition rate of the compound at each concentration was calculated, and then nonlinear regression analysis was carried out based on concentration logarithm-inhibition rate of the compound in GraphPad Prism 5 software, so as to obtain an IC50 value of the compound in inhibition on cell proliferation, which are shown in Table 1.

[3] = test system: HT-29 cells; experiment: Inhibition on HT-29 cell proliferation (CellTiter-Glo); assay type: cell-based; details: Homo sapiens, HT-29 cells (TP53 R273H mutation), 120 hours
Protocol: as §1, with “HT-29” for “OVCAR-3”, “R273H” for “R248Q”, “a McCOY's 5A” for “an RPMI 1640”, “10%” for “1000”
as §2, with “McCOY's 5A” for “RPMI 1640”, “120” for “72”, “µL” for “μL”, “2.” for “1.”

T1 sequence (Q8NI77 whole entry): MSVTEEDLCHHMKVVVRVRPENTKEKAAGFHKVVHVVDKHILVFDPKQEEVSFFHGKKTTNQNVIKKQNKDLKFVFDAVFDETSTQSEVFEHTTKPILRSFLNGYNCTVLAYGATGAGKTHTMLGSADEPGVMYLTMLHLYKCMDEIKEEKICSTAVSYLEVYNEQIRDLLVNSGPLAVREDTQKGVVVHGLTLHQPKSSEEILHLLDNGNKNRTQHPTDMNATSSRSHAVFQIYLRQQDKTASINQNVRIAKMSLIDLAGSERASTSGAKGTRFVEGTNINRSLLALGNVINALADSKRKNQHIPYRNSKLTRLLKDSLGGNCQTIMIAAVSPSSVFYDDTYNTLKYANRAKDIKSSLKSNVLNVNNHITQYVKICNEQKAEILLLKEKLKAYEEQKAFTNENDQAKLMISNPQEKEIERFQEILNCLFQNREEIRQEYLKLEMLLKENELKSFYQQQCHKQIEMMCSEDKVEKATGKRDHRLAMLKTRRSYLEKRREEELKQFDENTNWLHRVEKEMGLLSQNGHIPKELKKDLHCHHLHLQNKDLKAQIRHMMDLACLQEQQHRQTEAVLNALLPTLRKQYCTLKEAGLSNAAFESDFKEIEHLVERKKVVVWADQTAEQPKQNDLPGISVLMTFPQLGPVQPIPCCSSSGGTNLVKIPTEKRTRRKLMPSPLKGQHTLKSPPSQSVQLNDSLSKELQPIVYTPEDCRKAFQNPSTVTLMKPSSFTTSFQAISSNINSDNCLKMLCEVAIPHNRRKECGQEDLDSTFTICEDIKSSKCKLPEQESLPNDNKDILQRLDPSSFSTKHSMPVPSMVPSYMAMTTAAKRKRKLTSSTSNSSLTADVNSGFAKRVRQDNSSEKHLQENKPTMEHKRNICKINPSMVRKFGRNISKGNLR
T1 sequence (P68363 whole entry partner): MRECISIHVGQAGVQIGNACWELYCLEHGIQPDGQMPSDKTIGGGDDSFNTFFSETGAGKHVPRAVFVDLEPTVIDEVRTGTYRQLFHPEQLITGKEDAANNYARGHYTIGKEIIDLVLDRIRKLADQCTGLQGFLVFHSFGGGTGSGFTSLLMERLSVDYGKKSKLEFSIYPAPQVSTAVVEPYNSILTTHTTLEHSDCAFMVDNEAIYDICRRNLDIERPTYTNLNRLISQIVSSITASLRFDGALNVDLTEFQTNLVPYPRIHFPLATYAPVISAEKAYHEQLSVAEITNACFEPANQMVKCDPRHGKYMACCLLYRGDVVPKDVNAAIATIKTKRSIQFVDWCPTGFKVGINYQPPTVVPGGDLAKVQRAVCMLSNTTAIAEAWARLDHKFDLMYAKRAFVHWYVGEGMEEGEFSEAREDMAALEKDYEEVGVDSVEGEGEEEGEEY
T1 sequence (Q9BVA1 whole entry partner): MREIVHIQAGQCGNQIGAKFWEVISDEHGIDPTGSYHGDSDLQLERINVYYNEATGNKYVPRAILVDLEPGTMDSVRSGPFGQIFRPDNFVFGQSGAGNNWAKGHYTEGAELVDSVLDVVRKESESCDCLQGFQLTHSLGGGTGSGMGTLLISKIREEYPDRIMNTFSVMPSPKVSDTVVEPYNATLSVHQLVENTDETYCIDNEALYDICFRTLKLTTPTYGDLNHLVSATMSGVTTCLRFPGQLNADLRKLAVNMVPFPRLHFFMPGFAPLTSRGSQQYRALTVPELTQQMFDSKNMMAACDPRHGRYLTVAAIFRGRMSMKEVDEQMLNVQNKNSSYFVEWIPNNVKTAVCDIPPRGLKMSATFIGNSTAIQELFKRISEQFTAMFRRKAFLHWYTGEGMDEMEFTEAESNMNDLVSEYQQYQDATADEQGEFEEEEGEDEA

| SMILES | IC50 [1] [nM] | IC50 [2] [nM] | IC50 [3] [nM] |
| --- | --- | --- | --- |
| CCS(=O)(=O)Nc1ccc(C(=O)Nc2cc3c(c(N4CCCCC4)c2)OCC3)c(N2CCC3(CC2)CC3)c1 [Example 3, 4-(ethylsulfonamido)-N-(7-(piperidin-1-yl)-2,3-dihydrobenzofuran-5-yl)-2-(6-azaspiro[2.5]octan-6-yl)benzamide] | 72.5 | 11.2 | 6.6 |
| CCS(=O)(=O)Nc1ccc(C(=O)Nc2cc3c(c(N4CCC(F)(F)CC4)c2)OCCC3)c(N2CCC3(CC2)CC3)c1 [Example 15] |  | 18.4 | 23.6 |
| CCS(=O)(=O)Nc1ccc(C(=O)Nc2cc(N3CCC(F)(F)CC3)c3cnn(C)c3c2)c(N2CCC3(CC2)CC3)c1 [Example 16, N-(4-(4,4-difluoropiperidin-1-yl)-1-methyl-1H-indazol-6-yl)-4-(ethylsulfonamido)-2-(6-azaspiro[2.5]octan-6-yl)benzamide] | 209 | 36.7 | 35.7 |
| CCS(=O)(=O)Nc1ccc(C(=O)Nc2cc(N3CCC(F)(F)CC3)c3[nH]ncc3c2)c(N2CCC3(CC2)CC3)c1 [Example 21, N-(7-(4,4-difluoropiperidin-1-yl)-1H-indazol-5-yl)-4-(ethylsulfonamido)-2-(6-azaspiro[2.5]octan-6-yl)benzamide] | 229 | 16.6 | 13.8 |
| CCS(=O)(=O)Nc1ccc(C(=O)Nc2cc(N3CC(F)(F)C3)c3nn(C)cc3c2)c(N2CCC3(CC2)CC3)c1 [Example 24, N-(7-(3,3-difluoroazetidin-1-yl)-2-methyl-2H-indazol-5-yl)-4-(ethylsulfonamido)-2-(6-azaspiro[2.5]octan-6-yl)benzamide] | 85.7 | 13.4 | 4.1 |

Continued by falling IC50 [2], values first:

| IC50 [1] [nM] | IC50 [2] [nM] | IC50 [3] [nM] | SMILES |
| --- | --- | --- | --- |
| 157 | 11 | 7.8 | O=C(Nc1cc2c(c(N3CCC(F)(F)CC3)c1)OCC2)c1ccc(NS(=O)(=O)C2CC2)cc1N1CCC2(CC1)CC2 [Example 7, 4-(cyclopropanesulfonamido)-N-(7-(4,4-difluoropyridin-1-yl)-2,3-dihydrobenzofuran-5-yl)-2-(6-azaspiro[2.5]octan-6-yl)benzamide] |
| 60.9 | 9.1 | 10.7 | CCS(=O)(=O)Nc1ccc(C(=O)Nc2cc3c(c(N4CC(F)(F)C4)c2)OCC3)c(N2CCC3(CC2)CC3)c1 [Example 6, N-(7-(3,3-difluoroazetidine-1-yl)-2,3-dihydrobenzofuran-5-yl)-4-(ethylsulfonamido)-2-(6-azaspiro[2.5]octan-6-yl)benzamide] |
| 184 | 8.4 | 9.2 | CCS(=O)(=O)Nc1ccc(C(=O)Nc2cc3c(c(N4CCC(F)(F)CC4)c2)OCCO3)c(N2CCC3(CC2)CC3)c1 [Example 14, N-(8-(4,4-difluoropiperidin-1-yl)-2,3-dihydrobenzo[b][1,4]dioxin-6-yl)-4-(ethylsulfonamido)-2-(6-azaspiro[2.5]octan-6-yl)benzamide] |
| 142 | 6.8 | 18.9 | CN1Cc2cc(NC(=O)c3ccc(NS(=O)(=O)CCO)cc3N3CCC4(CC3)CC4)cc(N3CCC(F)(F)CC3)c2C1=O [Example 28, N-(7-(4,4-difluoropiperidin-1-yl)-2-methyl-1-oxoisoindolin-5-yl)-4-((2-hydroxyethyl)sulfamine)-2-(6-azaspiro[2.5]octan-6-yl)benzamide] |
| 291 | 5.5 | 7.3 | CCS(=O)(=O)Nc1ccc(C(=O)Nc2cc3c(c(N4CCC(F)(F)CC4)c2)OCO3)c(N2CCC3(CC2)CC3)c1 [Example 13, N-(7-(4,4-difluoropiperidin-1-yl)benzo[d][1,3]dioxol-5-yl)-4-(ethylsulfonamido)-2-(6-azaspiro[2.5]octan-6-yl)benzamide] |
| 142 | 4.3 | 3.9 | CCS(=O)(=O)Nc1ccc(C(=O)Nc2cc3c(c(N4CCC(F)(F)CC4)c2)C(=O)N(C)C3)c(N2CCC3(CC2)CC3)c1 [Example 2, N-(7-(4,4-difluoropiperidin-1-yl)-2-methyl-1-oxoisoindolin-5-yl)-4-(ethylsulfonamido)-2-(6-azaspiro[2.5]octan-6-yl)benzamide] |
| 123 | 3.6 | 5.8 | CCS(=O)(=O)Nc1ccc(C(=O)Nc2cc3c(c(N4CCC(F)(F)CC4)c2)C(=O)NC3)c(N2CCC3(CC2)CC3)c1 [Example 23, N-(7-(4,4-difluoropiperidin-1-yl)-1-oxoisoindolin-5-yl)-4-(ethylsulfonamido)-2-(6-azaspiro[2.5]octan-6-yl)benzamide] |
